Experimental data reported in ChEMBL document CHEMBL1133792, “Synthesis, absolute configuration and antimuscarinic activity of the enantiomers of [1-(2,2-diphenyl-[1,3]dioxolan-4-yl)-ethyl]-dimethyl-amine” (Bioorg Med Chem Lett, 2001).

Legend:
[1] = target: Muscarinic acetylcholine receptor M3 (Cavia porcellus) (UniProt Q8VH26); experiment: Affinity for Muscarinic acetylcholine receptor M3 of guinea pig ileum.; type: tissue-based
[2] = target: T1, Muscarinic acetylcholine receptor M2 (Homo sapiens) (UniProt P08172); experiment: Affinity for Muscarinic acetylcholine receptor M2 of guinea pig heart.; settings: Cavia porcellus; target entry is the homologue from another species
T1 sequence (whole entry): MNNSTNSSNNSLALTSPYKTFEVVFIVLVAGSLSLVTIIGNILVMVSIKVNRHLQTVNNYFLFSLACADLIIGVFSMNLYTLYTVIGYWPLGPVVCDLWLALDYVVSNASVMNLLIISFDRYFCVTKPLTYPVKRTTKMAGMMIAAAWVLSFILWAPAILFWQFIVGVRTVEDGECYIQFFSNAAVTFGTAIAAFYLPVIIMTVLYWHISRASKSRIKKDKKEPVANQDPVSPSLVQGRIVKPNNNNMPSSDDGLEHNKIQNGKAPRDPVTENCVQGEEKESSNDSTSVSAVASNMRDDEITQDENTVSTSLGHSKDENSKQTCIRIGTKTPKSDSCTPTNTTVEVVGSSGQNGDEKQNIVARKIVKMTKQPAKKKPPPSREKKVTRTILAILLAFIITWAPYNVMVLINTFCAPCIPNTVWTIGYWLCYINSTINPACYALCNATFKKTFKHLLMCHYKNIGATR

[3] = target: T2, Muscarinic acetylcholine receptor M1 (Homo sapiens) (UniProt P11229); experiment: Affinity for Muscarinic acetylcholine receptor M1 of rabbit vas deferens.; settings: Oryctolagus cuniculus; target entry is the homologue from another species
T2 sequence (whole entry): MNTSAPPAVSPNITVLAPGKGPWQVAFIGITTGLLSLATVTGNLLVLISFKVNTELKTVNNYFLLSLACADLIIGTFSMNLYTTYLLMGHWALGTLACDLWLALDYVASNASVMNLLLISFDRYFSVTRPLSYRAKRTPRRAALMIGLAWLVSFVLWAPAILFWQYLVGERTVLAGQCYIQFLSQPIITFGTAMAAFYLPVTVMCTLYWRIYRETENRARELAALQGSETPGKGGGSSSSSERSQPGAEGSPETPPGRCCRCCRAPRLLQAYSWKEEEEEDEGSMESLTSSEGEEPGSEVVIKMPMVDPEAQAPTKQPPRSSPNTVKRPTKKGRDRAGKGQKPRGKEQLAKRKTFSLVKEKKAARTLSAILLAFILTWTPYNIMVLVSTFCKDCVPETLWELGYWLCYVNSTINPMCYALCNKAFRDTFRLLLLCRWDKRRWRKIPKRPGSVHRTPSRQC

Muscarinic acetylcholine receptor M3 (Cavia porcellus), sequence (Q8VH26 1-587): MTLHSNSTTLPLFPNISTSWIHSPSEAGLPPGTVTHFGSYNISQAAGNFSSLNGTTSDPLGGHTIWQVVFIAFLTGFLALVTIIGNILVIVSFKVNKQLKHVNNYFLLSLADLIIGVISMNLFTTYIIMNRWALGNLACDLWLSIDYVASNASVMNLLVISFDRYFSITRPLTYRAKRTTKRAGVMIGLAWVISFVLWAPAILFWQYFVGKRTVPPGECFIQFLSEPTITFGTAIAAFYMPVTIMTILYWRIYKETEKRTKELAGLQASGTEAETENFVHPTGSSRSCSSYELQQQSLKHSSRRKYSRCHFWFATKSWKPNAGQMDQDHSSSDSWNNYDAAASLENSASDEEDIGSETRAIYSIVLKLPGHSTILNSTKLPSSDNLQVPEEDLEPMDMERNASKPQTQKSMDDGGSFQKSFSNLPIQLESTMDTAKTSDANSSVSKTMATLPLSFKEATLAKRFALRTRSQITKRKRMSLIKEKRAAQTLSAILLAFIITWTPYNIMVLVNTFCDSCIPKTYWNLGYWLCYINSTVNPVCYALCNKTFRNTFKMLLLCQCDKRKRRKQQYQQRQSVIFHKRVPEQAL

pKb [1] | pKb [2] | pKb [3] | SMILES
6.72 | 7.11 | 7.15 | CN(C)CC1COC(c2ccccc2)(c2ccccc2)O1 (centres undefined)
6.41 | 6.41 | 6.52 | C[C@H](C1COC(c2ccccc2)(c2ccccc2)O1)N(C)C (some centres undefined)
7.19 | 7.35 | 6.94 | C[C@@H](C1COC(c2ccccc2)(c2ccccc2)O1)N(C)C (some centres undefined)
7.92 | 8.07 | 7.82 | CC(C1COC(c2ccccc2)(c2ccccc2)O1)[N+](C)(C)C (racemic; form 2)
7.51 | 7.53 | 8.24 | C[C@H](C1COC(c2ccccc2)(c2ccccc2)O1)[N+](C)(C)C (some centres undefined)
8.92 | 8.39 | 8.46 | C[C@@H]([C@H]1COC(c2ccccc2)(c2ccccc2)O1)N(C)C
8 | 8.21 | 7.12 | C[C@@H](C1COC(c2ccccc2)(c2ccccc2)O1)[N+](C)(C)C (some centres undefined)
7.94 | 8.03 | 8.11 | CC(C1COC(c2ccccc2)(c2ccccc2)O1)N(C)C (racemic; form 2)
7.45 | 7.47 | 6.83 | C[C@H]([C@@H]1COC(c2ccccc2)(c2ccccc2)O1)N(C)C
8.4 | 8.38 | 8.23 | C[C@H]([C@@H]1COC(c2ccccc2)(c2ccccc2)O1)[N+](C)(C)C
6.96 | 7.2 | 6.95 | CC(C1COC(c2ccccc2)(c2ccccc2)O1)N(C)C (racemic; form 1)
7.85 | 7.82 | 7.47 | C[C@@H]([C@H]1COC(c2ccccc2)(c2ccccc2)O1)[N+](C)(C)C
8.3 | 8.22 | 8.01 | CC(C1COC(c2ccccc2)(c2ccccc2)O1)[N+](C)(C)C (racemic; form 1)
